Entries after “also recorded” stand apart in the source; their conditions may differ.
What was measured:
[1] = tested on: Th17n, Th17p and iTreg cells; assay: Population (bulk) RNA-seq of in vitro differentiated T cells; type: cell-based, mouse
Description: (§1) RNA-seq. For population (bulk) RNA-seq, in vitro differentiated T-cells were sorted for live cells and lysed with RLT Plus buffer and RNA was extracted using the RNeasy Plus Mini Kit (Qiagen). Full-length RNA-seq libraries were prepared as previously described and paired-end sequenced (75 bp×2) with a 150 cycle Nextseq 500 high output V2 kit.
Bulk RNA-Seq and SMART-Seq2 analysis. Applicants aligned single-cell SMART-Seq2 libraries with Bowtie2, quantified TPM gene expression with RSEM, and performed QC as Applicants described in detail in a previous publication^51. This computational pipeline is a massively revised and updated version of the one originally used to analyze these libraries^19. Batch effects and other nuisance factors were normalized with a model chosen empirically with SCONE ^52. Bulk RNA-Seq were processed with a modified variant of the same pipeline. In the absence of UMIs, differentially expressed genes were called through a linear model fitted to TPM values with the limma R package and with a mean-variance trend added to the empirical bayes prior^53,54.
as §1
Bulk RNA libraries from DFMO- or vehicle-treated Th17p, Th17n, or Treg were studied with 3 replicates per condition for a total of 18 libraries as shown in FIG. 36A. Genes that are associated with a Th17 or Treg programs (orange and purple, respectively, in FIG. 36B-C) were determined by differential expression test between bulk RNA libraries of (vehicle-treated) Th17n and Th17p on one side and Treg on the other with BH-adjusted p<0.05 and absolute value of log 2 fold-change of at least 1.5. Genes associated with the Th17p or Th17n program (magenta and green, respectively, in FIG. 40A) were determined by differential expression test between bulk RNA libraries of (vehicle-treated) Th17p vs. Th17n with the same thresholds. The PCA shown in FIG. 36A was computed on the set of 3,414 that were differentially associated with Th17, Treg, Th17p, or Th17n programs by the aforementioned criteria to focus it on the subspace of the transcriptome relevant to Th17 pathogenicity phenotypes.
Applicants aligned single-cell SMART-Seq libraries with Bowtie2, quantified TPM gene expression with RSEM, and performed QC as Applicants described in detail in a previous publication (Fletcher et al., 2017). This computational pipeline is a massively revised and updated version of the one originally used to analyze these libraries (Gaublomme et al., 2015). Batch effects and other nuisance factors were normalized with a model chosen empirically with SCONE (Cole et al., 2019). Bulk RNA-Seq were processed with a modified variant of the same pipeline.
For the Smart-Seq libraries, due the absence of UMIs in the dataset, differentially expressed genes were called through a linear model _tted to TPM values with the limma R package and with a mean-variance trend added to the empirical Bayes prior (Ritchie et al., 2015). For the bulk RNA libraries, differentially expressed genes were called with limma-trend or limma-voom (Law et al., 2014) depending on the variance of library sizes, as recommended in the limma package manual (Smyth, 2019).

[2] = tested on: MOG35-55 specific T cells; assay: Antigen-specific recall response of draining lymph node cells to MOG35-55 (thymidine incorporation, Legendplex); type: in vivo, mouse
Description: FIG. 37A-37I—Targeting ODC1 and SAT1 alleviate EAE. (A) Schematics of the polyamine pathway; (B-D) The effects of chemical inhibition of ODC1 by DFMO on EAE. Wildtype mice were immunized with MOG35-55/CFA to induce experimental autoimmune encephalomyelitis and followed for clinical scoring. DFMO were provided in drinking water from day 0 for 10 days in experimental group. B, Clinical score over time. […] C, Antigen-specific cell proliferation is measured by thymidine incorporation after culturing cells isolated from draining lymph node of mice (d15 post immunization) with increasing dose of MOG35-55 peptide for 3 days. D, Flow cytometric analysis of intracellular Foxp3 expression in T cells isolated from CNS at day 15 post immunization. (E-I) The effects of genetic perturbation of SAT1. E, The effects of SAT1 deficiency on metabolome. Abundance of metabolites in the polyamine pathway were determined by LC/MS based metabolomics. Th17n and Th17p cells were differentiated in vitro from naïve cells isolated from WT or SAT1^−/− mice. (F-I) The effects of SAT1 deficiency on EAE. EAE were induced as in (B) in wildtype and SAT1^fl/flCD4^cre mice. F, Clinical score (left) and histological score (right) showing the number of CNS infiltrates show representative experiment with 5 WT and 8 CKO mice. G-H, Cells were isolated from draining lymph node of mice (d23 post immunization) and co-cultured with increasing dose of MOG35-55 peptide for 3 days. Antigen-specific cell proliferation is measured by thymidine incorporation (G) and antigen-specific cytokine secretion by legendplex (H). I, Flow cytometry analysis of intracellular transcription factor expression in CD4 T cells isolated from CNS day 15 post immunization. Linear regression analysis (b, c, f, g), two-way anova (e) and student t test (d, i) were used for statistical analysis.
FIG. 46A-46J—EGCG exacerbates and DHEA ameliorates Th17-induced EAE in vivo. 2D2 TCR-transgenic Th17 cells were adoptively transferred after differentiation in vitro in the presence of an inhibitor or vehicle as indicated. (A, C, G) Clinical outcome of EAE; (B, D) Histological score based on cell infiltrates in meninges and parenchyma of CNS; (E, F) Draining lymph node (cervical) from respective mice were isolated and pulsed with increasing dose of MOG35-55 peptide for 3 days and (E) subjected to thymidine incorporation assay; or (F) measurement of cytokine secretion by Legendplex and flow cytometry. Concentrations were normalized through division by the respective response to no antigen control (H-I) Independent pathological report of CNS isolated from mice with EAE at end point (d35 for EGCG experiments; d28 for DHEA experiment); Optic nerves were not found in the histologic section from one animal in the EGCG+IL-23 group. (J) Representative histology of spinal cord and spinal nerve roots. […] PC, posterior column; PH, posterior horn. Individual mouse numbers are indicated. […] All are H. & E., 40× objective. Three similar experiments were performed.

[3] = mice transferred with EGCG-treated Th17n cells

In the case of `NCCC[C@](N)(C(=O)O)C(F)F` [DFMO, 2-(difluoromethyl)ornithine], the “expression of chromatin modifiers / chromatin associated genes” value [1] is reported as “alters chromatin associated genes; also recorded: significant changes”, the “genes shared / expressed comparably between Th17 and Treg cells” value [1] is reported as “do not change; also recorded: no significant effect” and the “transcriptome shift (principal component analysis)” value ([1]; Th17 and iTreg cells) is reported as “shift Th17 cells to Treg-like transcriptome; also recorded: shift the cells towards Treg gene expression; also recorded: clearly driving cells towards Treg cells; also recorded: driving Th17 cells towards Treg cell profiles; also recorded: promotes Treg-like transcriptome”. The Foxp3 ([1]; Th17 cells) was “upregulated”, the Il17a ([1]; Th17 cells) was “significantly suppressed” and the Il17f ([1]; Th17 cells) was “significantly suppressed”. The Il23r ([1]; Th17 cells) was “significantly suppressed”, the “Th17 specific genes / transcriptome” value ([1]; Th17n and Th17p cells) was “reducing canonical Th17 genes; also recorded: shift Th17 specific genes down; also recorded: suppressed” and the “Treg specific genes / transcriptome” value ([1]; Th17n and Th17p cells) was “shift Treg specific genes up; also recorded: promoted”. The “proinflammatory state genes (upregulated in Th17p)” value ([1]; Th17p cells) was “downregulation”, the “regulatory state genes (upregulated in Th17n)” value ([1]; Th17p cells) was “significant upregulation” and the “antigen-specific recall response / proliferation (thymidine incorporation)” value ([2]; draining lymph node of DFMO treated EAE animals) was “decreases H3 incorporation; also recorded: decreases proliferation of immune cells; also recorded: significantly reduced”.
epigallocatechin-3-gallate [EGCG] was tested, and the CASP1 ([1]; Th17n) was “up-regulated; also recorded: upregulating”, the IKZF3 ([1]; Th17n) was “downregulated; also recorded: downregulating” and the IL7R ([1]; Th17n) was “up-regulated; also recorded: upregulating”. For the same compound, the IL22 ([1]; Th17n) was “up-regulated; also recorded: upregulating”, the “pro-pathogenic transcriptional program / module” value ([1]; Th17n cells) was “promotes the pro-pathogenic module; also recorded: clearly strengthened” and the pro-regulatory module ([1]; Th17n cells) was “suppresses the pro-regulatory module”. The “position on PC1 (pathogenicity phenotype)” value ([1]; bulk RNA-Seq of d1 Th17n and Th17p cells) was “toward a more pathogenic one; also recorded: shifted cell profiles towards a more pathogenic state”, the “antigen-specific T cell proliferation” value [2, 3] was “only a small difference” and the “secretion of IL-6 in response to antigen” value [2, 3] was “significant increase”. For the same compound, the “secretion of IL-17F in response to antigen” value [2, 3] was “significant increase”, the “secretion of IL-17 in response to antigen” value [2, 3] was “significant increase” and the “secretion of IL-22 in response to antigen” value [2, 3] was “significant increase”.
